The subject of series [1] is HepG2 human liver cancer cell strain. The series can be described thus: In vitro anti-proliferation of tumor cells (CCK-8), HepG2. As to conditions: HepG2, 72 hours. Type of series: cell-based. The protocol: (§1) Experimental Example 2: Determination of the Compounds According to the Present Invention for IC50 of the In Vitro Anti-Proliferation of Tumor Cells
HepG2 human liver cancer cell strain (purchased from Shanghai Institute of Cell Biology, Chinese Academy of Sciences);
(§2) Preparation of a compound: the compound was diluted with DMSO to a final concentration of 10 mM.
(§3) a) Cells in logarithmic growth phase were collected, counted, and re-suspended in complete medium. The concentration of cells was adjusted to a suitable concentration (determined depending on the result of optimization experiment of cell density), and the cells were seeded to a 96-well plate at 100 μl cell suspension per well. The cells were incubated in an incubator at 37° C., 100% relative humidity, 5% CO2 for 24 hours.
(§4) b) A test compound was diluted with the culture medium to 500 μM, and then gradient dilution was performed for 8 times. Cells were added at 25 μl/well. The final concentrations of the compound was in a range from 100 μM and 0 μM, 4-fold diluted, including 10 concentrations.
(§5) c) The cells were incubated in an incubator at 37° C., 100% relative humidity, 5% CO2 for 72 hours.
(§6) d) The culture medium was withdraw and discarded, the complete medium containing 10% CCK-8 was added, and then the cells were incubated in an incubator at 37° C. for 2-4 hours.
(§7) IC50 curve was fitted and IC50 value was calculated by professional software GraphPad Prism 5.0.
(§8) In the experiment, the compounds according to the present invention were determined for their IC50 values of in vitro anti-proliferation of tumor cell strains. The final concentrations of the compounds was in a range from 100 μM and 0 μM, 4-fold diluted, including 10 concentrations.

In series [2] the test system is NCI-H460 Human large cell lung cancer cell strain. The series can be described thus: In vitro anti-proliferation of tumor cells (CCK-8), NCI-H460. The format is cell-based. As to conditions: NCI-H460, 72 hours. The protocol:
as §1
NCI-H460 Human large cell lung cancer cell strain (purchased from Shanghai Institute of Cell Biology, Chinese Academy of Sciences);
as §2, §3, §4, §5, §6, §7, §8

For a further series, the target named is VEGFR2 (Homo sapiens (Human), UniProt P35968). The series can be described thus: Inhibitory activity of VEGFR2 kinase (HTRF KinEASE-TK kit). Type of series: biochemical. The protocol: HTRF®KinEASE™-TK kit (Cat.62TKOPEC, Cisbio);
VEGFR2 (Cat: k2643, Sigma);
2.1 Preparation of VEGFR2 Kinase Reagent
1× kinase buffer: 1 mL 1× kinase buffer contained 200 μL 5× kinase buffer (Invitrogen), 5 μL, 1M MgCl2, 1 μL 1M DTT, 1 μL 1M MnCl2, and 793 μL ddH2O;
5×TK substrate-biotin and ATP working fluid: as the concentrations of TK substrate-biotin and ATP, please refer to Table 1. TK substrate-biotin and ATP were diluted with 1× kinase buffer to 5 folds of the reaction concentrations;
5× kinase working fluid: as the concentration of VEGFR2 kinase, please refer to Table 1. 5× kinase working fluid was prepared with 1× Kinase buffer;
4× Sa-XL665 working fluid: as the concentration of Sa-XL665 (Cisbio) in the reaction, please refer to Table 1. The 4× Sa-XL665 working fluid was prepared with assay buffer (Cisbio);
4×TK Ab-cryptate working fluid: TK Ab-Cryptate (Cisbio) was 100-fold diluted with assay buffer (Cisbio), as working fluid;
Experimental Procedure of HTRF KinEASE TK Kit
After all the reagents were prepared as described above, the reagents except for enzymes were equilibrated to room temperature, then adding samples were performed.
TK substrate-biotin, ATP, VEGFR2 kinase and a compound at a certain concentration were reacted in 1× kinase buffer at room temperature for 20 minutes. […] To all the reaction wells, 5 μl 4× Sa-XL665 working fluid and 5 μl 4×TK Ab-cryptate working fluid were added. After reacting at room temperature for 1 hours, fluorescence signal (excited at 320 nm, emitted at 665 nm, 615 nm) was detected by ENVISION detector (Perkinelmer). Based on the full-active well and the background signal well, the inhibition rate for each well was calculated, and the average value was used for duplicate wells. The half maximal inhibitory concentration (IC50) for each test compound was fitted by professional software Graphpad PRISM 5.0.
2.3 Data Analysis Emission light ratio (ER)=665 nm emission signal/615 nm emission signal Inhibition rate=(ERpositive−ERsample)/(ERpositive−ERnegative)*100%
HTRF KinEASE TK kit was used to determine the IC50 value of a compound for kinase VEGFR2. The final concentration of the compound started from 100 μM, and 4-fold gradient dilution was carried out to provide 10 concentrations. Duplicate wells were used for each concentration. The final concentration of DMSO was controlled to 1% in the reaction system.

The test system of series [3] is HCT116 human colon cancer cell strain. The series can be described thus: In vitro anti-proliferation of tumor cells (CCK-8), HCT-116. Type of series: cell-based. The following applies: HCT-116, 72 hours. How it is done: as §1
HCT116 human colon cancer cell strain (purchased from Shanghai Institute of Cell Biology, Chinese Academy of Sciences);
as §2, §3, §4, §5, §6, §7, §8

In series [4] the test system is MiaPaCa-2 human pancreatic cancer cell strain. Put plainly: In vitro anti-proliferation of tumor cells (CCK-8), MiaPaCa-2. Type of series: cell-based. The following applies: MIA PaCa-2, MiaPaCa-2, 72 hours. The protocol: as §1
MiaPaCa-2 human pancreatic cancer cell strain (purchased from American ATCC);
as §2, §3, §4, §5, §6, §7, §8

Another series is described as follows: Pharmacokinetics in mice. Type of series: in vivo. As to conditions: female, plasma, CD-1 mouse. The protocol: Administration route: intravenous injection (IV); per os (PO).
Fasting condition: free access to water, no fasting.
The mice were weighed before administration, and the administration volume was calculated based on their body weights (IV group: 4 mL/kg; PO group: 10 mL/kg).
Administration route and dose: Intravenous (IV) group: 1 mg/kg; Oral (PO) group: 5 mg/kg.
Animal grouping: 3 mice/group, an IV group and a PO group for each test compound.
After administration, 30 μL whole blood was collected from rim of the eyes of mice in the IV group at each pre-determined time point (5 min, 15 min, 30 min, 1 h, 2 h, 4 h, 8 h, 24 h), and 30 μL whole blood was collected from rim of the eyes of mice in the PO group at each pre-determined time point (15 min, 30 min, 1 h, 2 h, 4 h, 8 h, 24 h). The whole blood was centrifuged (6,000 rpm, 5 min) to get blood plasma. All the blood plasma samples were stored in a refrigerator of −80° C. for further analysis.
Conditions of LC/MS/MS was as follows:
Pharmacokinetic parameters were estimated according to non-compartment model (calculated by WinNonlin software): […]
IV paramater: t1/2 (hr); C0 (ng/mL); AUClast (hr*ng/mL); AUCInf (hr*ng/mL); AUC Extr (%); Vz (L/kg); Vss (L/kg); CL (mL/min/kg); MRT (hr).
PO parameter: t1/2 (hr); tmax (hr); Cmax (ng/mL); AUClast (hr*ng/mL); AUCInf (hr*ng/mL); AUC Extr (%); MRT (hr); AUC/D (hr*mg/mL); F (%).

In series [5] the test system is A498 human renal carcinoma cell strain. The series can be described thus: In vitro anti-proliferation of tumor cells (CCK-8), A498. Type of series: cell-based. As to conditions: A498, 72 hours. The protocol:
as §1
A498 human renal carcinoma cell strain (purchased from Shanghai Institute of Cell Biology, Chinese Academy of Sciences);
as §2, §3, §4, §5, §6, §7, §8

Series [6] deals with 786-O human renal clear cell carcinoma cell strain. Put plainly: In vitro anti-proliferation of tumor cells (CCK-8), 786-O. The format is cell-based. As to conditions: 786-0, 72 hours. How it is done: as §1
786-O human renal clear cell carcinoma cell strain (purchased from Shanghai Institute of Cell Biology, Chinese Academy of Sciences);
as §2, §3, §4, §5, §6, §7, §8

The subject of series [7] is SK-OV-3 human ovarian cancer cell strain. Put plainly: In vitro anti-proliferation of tumor cells (CCK-8), SK-OV-3. The format is cell-based. As to conditions: SK-OV-3, 72 hours. How it is done:
as §1
SK-OV-3 human ovarian cancer cell strain (purchased from Shanghai Institute of Cell Biology, Chinese Academy of Sciences);
as §2, §3, §4, §5, §6, §7, §8

Series [8] has as its system MDA-MB-231 human mammary cancer cell strain. Put plainly: In vitro anti-proliferation of tumor cells (CCK-8), MDA-MB-231. Type of series: cell-based. The protocol:
as §1
MDA-MB-231 human mammary cancer cell strain (purchased from Shanghai Institute of Cell Biology, Chinese Academy of Sciences);
as §2, §3, §4, §5, §6, §7, §8

For series [9], the system named is HL-60 human acute myeloid leukemia cell strain. The series can be described thus: In vitro anti-proliferation of tumor cells (CCK-8), HL-60. Type of series: cell-based. As to conditions: HL-60, 72 hours. The protocol:
as §1
HL-60 human acute myeloid leukemia cell strain (purchased from Shanghai Institute of Cell Biology, Chinese Academy of Sciences);
as §2, §3, §4, §5, §6, §7, §8

Sequence of VEGFR2 (P35968 20-1356): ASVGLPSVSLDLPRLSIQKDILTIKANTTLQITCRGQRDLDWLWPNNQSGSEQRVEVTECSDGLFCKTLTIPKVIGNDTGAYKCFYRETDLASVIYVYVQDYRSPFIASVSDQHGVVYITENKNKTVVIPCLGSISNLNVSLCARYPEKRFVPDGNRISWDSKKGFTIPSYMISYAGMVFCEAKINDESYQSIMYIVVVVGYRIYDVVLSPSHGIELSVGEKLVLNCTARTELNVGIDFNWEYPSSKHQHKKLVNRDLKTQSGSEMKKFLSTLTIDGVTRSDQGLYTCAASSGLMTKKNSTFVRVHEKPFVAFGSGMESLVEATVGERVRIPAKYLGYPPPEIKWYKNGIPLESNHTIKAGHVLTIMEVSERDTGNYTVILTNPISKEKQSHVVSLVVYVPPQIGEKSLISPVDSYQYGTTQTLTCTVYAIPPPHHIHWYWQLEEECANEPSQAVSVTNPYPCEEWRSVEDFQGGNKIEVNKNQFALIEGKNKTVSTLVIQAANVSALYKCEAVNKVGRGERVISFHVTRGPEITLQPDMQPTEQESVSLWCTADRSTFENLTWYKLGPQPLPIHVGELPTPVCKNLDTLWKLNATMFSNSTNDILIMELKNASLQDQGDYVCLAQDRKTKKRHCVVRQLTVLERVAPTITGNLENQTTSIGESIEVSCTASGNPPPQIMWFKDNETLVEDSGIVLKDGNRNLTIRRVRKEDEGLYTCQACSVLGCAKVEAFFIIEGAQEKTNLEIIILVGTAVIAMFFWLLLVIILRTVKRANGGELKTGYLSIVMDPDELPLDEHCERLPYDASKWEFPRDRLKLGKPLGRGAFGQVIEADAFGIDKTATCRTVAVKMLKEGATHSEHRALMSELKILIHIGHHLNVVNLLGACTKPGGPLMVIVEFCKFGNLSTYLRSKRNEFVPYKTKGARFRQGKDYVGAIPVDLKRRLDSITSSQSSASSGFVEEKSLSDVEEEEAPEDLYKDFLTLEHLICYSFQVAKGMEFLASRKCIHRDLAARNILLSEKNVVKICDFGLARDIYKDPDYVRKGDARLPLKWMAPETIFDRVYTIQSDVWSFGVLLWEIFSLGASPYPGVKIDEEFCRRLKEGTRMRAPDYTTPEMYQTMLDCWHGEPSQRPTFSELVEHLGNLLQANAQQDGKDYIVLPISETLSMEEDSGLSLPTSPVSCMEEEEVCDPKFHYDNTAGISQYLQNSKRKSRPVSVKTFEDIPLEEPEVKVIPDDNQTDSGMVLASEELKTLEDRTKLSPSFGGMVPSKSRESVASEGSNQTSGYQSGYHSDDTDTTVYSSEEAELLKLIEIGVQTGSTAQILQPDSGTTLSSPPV

Regarding `Cn1cc(-c2nccc(Oc3ccc(NC(=O)Nc4ccc(Cl)c(C(F)(F)F)c4)cc3)c2F)cn1` [Example 1, 1-(4-chloro-3-(trifluoromethyl)phenyl)-3-(4-(3-fluoro-2-(1-methyl-4-pyrazolyl)-pyridin-4-yl-oxy)phenyl)urea], the IC50 (commonly the midpoint of a concentration-inhibition curve) in series [1] was determined as 721 nM; in series [2], 939 nM; at VEGFR2 (ATP 5 μM, 20 minutes, room temperature) it was 28.6 nM; in series [3] it was 2770 nM; in series [4] it was 2040 nM; in series [5], 4.95 µM. For the same compound, the IC50 was 2430 nM in [6]; 7.14 µM in series [7]; 2820 nM in series [8] (Homo sapiens, MDA-MB-231, 72 hours, CCK-8); 17.1 µM in series [9]. Also, the “inhibitory activity as fold of that of Comparative compound 2” value at VEGFR2 (VEGFR2 kinase) is 6.6 fold. Moreover, the “inhibitory activity as fold of that of Sorafenib” value at VEGFR2 (VEGFR2 kinase) was determined as 3.13 fold. On VEGFR2 (VEGFR2 kinase, ratio of IC50), the “IC50 value as fold of that of Comparative compound 2” value came to 0.15 fold. Moreover, on VEGFR2 (VEGFR2 kinase, ratio of IC50), the “IC50 value as fold of that of Sorafenib (free base)” value is listed as 0.32 fold. Also, in “Pharmacokinetics in mice” (PO 5 mg/kg vs IV 1 mg/kg, read-out: F (oral bioavailability)), the bioavailability – broadly, dose-corrected exposure relative to a reference, in per cent – was found to be 90.3%. For the same compound, the AUC(0-t) in the series “Pharmacokinetics in mice” (PO 5 mg/kg, average of three mice, read-out: AUClast (area under the curve)) was 39600 ng·h/mL. The Cmax in the series “Pharmacokinetics in mice” (PO 5 mg/kg, average of three mice, read-out: Cmax (peak concentration)) worked out at 1910 ng/mL. Moreover, in series [8] (MDA-MB-231 cell line), the “IC50 as fold of that of Sorafenib” value is recorded as 0.28 fold.

The values are drawn from patent publication US9902709B2, “Polysubstituted pyridine compound, preparation method, use and pharmaceutical composition” (PEKING UNIVERSITY FOUNDER GROUP CO., LTD., priority 2014, dated 2018).
